Data as given in US7244727B2, “Fused bicyclic nitrogen-containing heterocycles” (Japan Tobacco Inc., priority 2002, dated 2007).

How the values were obtained:
human DGAT1 = biological target: T1, human DGAT1 (Homo sapiens, UniProt O75907); experiment: DGAT Scintillation Proximity Assay (SPA) with membranes of insect cells expressing human flagtag DGAT1; assay type: biochemical; conditions: read-out: hDGAT1 IC50
T1 construct: made in house; host or cells: insect cells (sf9, sf21 or High Five) infected with baculovirus; total cell membranes
T1 sequence (O75907 1-488): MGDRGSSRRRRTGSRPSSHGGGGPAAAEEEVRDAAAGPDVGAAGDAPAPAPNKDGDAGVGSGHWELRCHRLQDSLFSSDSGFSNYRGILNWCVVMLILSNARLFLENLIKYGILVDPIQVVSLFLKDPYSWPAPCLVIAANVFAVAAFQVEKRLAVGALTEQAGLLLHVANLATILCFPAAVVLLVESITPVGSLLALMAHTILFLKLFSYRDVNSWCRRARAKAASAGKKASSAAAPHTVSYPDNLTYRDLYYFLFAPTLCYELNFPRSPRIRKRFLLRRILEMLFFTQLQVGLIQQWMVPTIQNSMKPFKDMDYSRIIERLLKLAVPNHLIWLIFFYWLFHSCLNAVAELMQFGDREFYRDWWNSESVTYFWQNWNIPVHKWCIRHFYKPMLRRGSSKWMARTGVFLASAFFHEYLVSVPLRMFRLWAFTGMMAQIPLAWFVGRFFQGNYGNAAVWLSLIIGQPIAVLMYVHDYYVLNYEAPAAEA
In short: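 Membranes (0.2 μg/well) from insect cells expressing human flag-tagged DGAT1 incubated with 10 μM compound and 200 μM dioleoyl glycerol substrate; mercuric chloride as inhibition control. Reaction stopped with WGA SPA beads in mercuric chloride, overnight bead coupling, then scintillation proximity signal read.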

| IC50 (human DGAT1) [nM] | melting point [°C] | SMILES |
| --- | --- | --- |
| 10 to 100 | 251 to 252 | CC1(C)Oc2ncnc(N)c2N=C1c1ccc([C@H]2CC[C@H](CNS(C)(=O)=O)CC2)cc1 [Example 2-58] |
| 10 to 100 | > 250 | CC1(C)Oc2ncnc(N)c2N=C1c1ccc([C@H]2CC[C@H](Cc3cc(O)[nH]n3)CC2)cc1 [Example 2-59] |
| 10 to 100 | 173 to 175 | CC1(C)Oc2ncnc(N)c2N=C1c1ccc([C@H]2CC[C@H](Cc3cc(O)on3)CC2)cc1 [Example 2-60] |
| 10 to 100 | 159 to 162 | CC1(C)Oc2ncnc(N)c2N=C1c1ccc([C@H]2CC[C@H](CNC(=O)OCc3ccccc3)CC2)cc1 [Example 2-61] |
| 10 to 100 | > 230 | CC1(C)Oc2ncnc(N)c2N=C1c1ccc([C@H]2CC[C@H](OCC(=O)O)CC2)cc1 [Example 2-62] |
| 10 to 100 | > 230 | CC1(C)Oc2ncnc(N)c2N=C1c1ccc([C@H]2CC[C@H](CC3SC(=O)NC3=O)CC2)cc1 (stereo partly drawn) [Example 2-64] |
| < 10 | 243 to 244 | CC(C)(NC(=O)C[C@H]1CC[C@H](c2ccc(C3=Nc4c(N)ncnc4OC3(C)C)cc2)CC1)C(=O)O [Example 2-65] |
| > 100 | 176 to 177 | CC1(C)Oc2ncnc(N)c2N=C1c1ccc2c(c1)CCCC2 [Example 2-66] |
| 10 to 100 | > 250 | CC1(C)Oc2ncnc(N)c2N=C1c1ccc(C2(C)CCC(CC(=O)O)CC2)cc1 (stereo not drawn) [Example 2-67] |
| > 100 | > 250 | CC1(C)Oc2ncnc(N)c2N=C1c1ccc2c(c1)C(CC(=O)O)CCC2 (stereo not drawn) [Example 2-68] |
| < 10 | > 250 | CC(C(=O)O)[C@H]1CC[C@H](c2ccc(C3=Nc4c(N)ncnc4OC3(C)C)cc2)CC1 (stereo partly drawn) [Example 2-69] |
| 10 to 100 | 212 to 214 | CC1(C)Oc2ncnc(N)c2N=C1c1ccc([C@H]2CC[C@H](CN3CC(=O)NC3=O)CC2)cc1 [Example 2-70] |
| > 100 | > 250 | CC1(C)Oc2ncnc(N)c2N=C1c1ccc2c(c1)CC(C(=O)O)C2 (stereo not drawn) [Example 2-71] |
| 10 to 100 | > 250 | CC1(C)Oc2ncnc(N)c2N=C1c1ccc2c(c1)CC(CC(=O)O)C2 (stereo not drawn) [Example 2-72] |
| 10 to 100 | > 250 | CC(C)(NC(=O)C[C@H]1CC[C@H](c2ccc(C3Nc4c(N)ncnc4OC3(C)C)cc2)CC1)C(=O)O (stereo partly drawn) [Example 2-73] |
| > 100 | 244 to 245 | CC1(C)Oc2ncnc(N)c2NC1(C)c1ccc(C2CCCCC2)cc1 (stereo not drawn) [Example 2-75] |
| 10 to 100 | > 250 | CC1(C)Oc2ncnc(N)c2NC1c1ccc([C@H]2CC[C@H](Cc3nn[nH]n3)CC2)cc1 (stereo partly drawn) [Example 2-76] |
| 10 to 100 | 137 to 139 | CC1(C)Oc2ncnc(N)c2N=C1c1ccc([C@H]2CC[C@H](CC(=O)N3CCC(O)CC3)CC2)cc1 [Example 2-77] |
| 10 to 100 | 185 to 187 | CC(C)(O)C[C@H]1CC[C@H](c2ccc(C3=Nc4c(N)ncnc4OC3(C)C)cc2)CC1 [Example 2-78] |
| 10 to 100 | 207 to 208 | CC1(C)Oc2ncnc(N)c2N=C1c1ccc([C@H]2CC[C@H](CCO)CC2)cc1 [Example 2-79] |
| 10 to 100 | 271 to 272 | CC1(C)Oc2ncnc(N)c2N=C1c1ccc([C@H]2CC[C@H](CC(O)C(F)(F)F)CC2)cc1 (stereo partly drawn) [Example 2-80] |
| > 100 | 209 to 210 | CC1(C)Oc2ncnc(N)c2N=C1c1ccc([C@H]2CC[C@H](CCN3CCCCC3)CC2)cc1 [Example 2-82] |
| > 100 | 142 to 143 | CC1(C)Oc2ncnc(N)c2N=C1c1ccc([C@H]2CC[C@H](CCN3CCCC3)CC2)cc1 [Example 2-83] |
| > 100 | 217 to 218 | CC1(C)Oc2ncnc(N)c2N=C1c1ccc([C@H]2CC[C@H](CCN3CCC(O)CC3)CC2)cc1 [Example 2-84] |
| > 100 | 115 to 116 | CC1(C)Oc2ncnc(N)c2N=C1c1ccc([C@H]2CC[C@H](CCN3CCC(O)(c4ccccc4)CC3)CC2)cc1 [Example 2-85] |
| > 100 | 190 to 191 | CC1(C)Oc2ncnc(N)c2N=C1c1ccc([C@H]2CC[C@H](CCN3CCC(Cc4ccccc4)CC3)CC2)cc1 [Example 2-86] |

| IC50 (human DGAT1) [nM] | melting point [°C] | SMILES |
| --- | --- | --- |
| > 100 | 221 to 222 | CC1(C)Oc2ncnc(N)c2N=C1c1ccc([C@H]2CC[C@H](CCN3CCC(CCO)CC3)CC2)cc1 [Example 2-87] |
| > 100 | 175 to 176 | CC1(C)Oc2ncnc(N)c2N=C1c1ccc([C@H]2CC[C@H](CCN3CCN(Cc4ccccc4)CC3)CC2)cc1 [Example 2-88] |
| 10 to 100 | 113 to 115 | CN1CCN(C(=O)C[C@H]2CC[C@H](c3ccc(C4=Nc5c(N)ncnc5OC4(C)C)cc3)CC2)CC1 [Example 2-92] |
| 10 to 100 | 146 to 147 | CC1(C)Oc2ncnc(N)c2N=C1c1ccc([C@H]2CC[C@H](CC(=O)N3CCCCC3)CC2)cc1 [Example 2-93] |
| 10 to 100 | 232 to 233 | CC1(C)Oc2ncnc(N)c2N=C1c1ccc([C@H]2CC[C@H](CC(=O)N3CCCC3)CC2)cc1 [Example 2-94] |
| 10 to 100 | 199 to 200 | CC1(C)Oc2ncnc(N)c2N=C1c1ccc([C@H]2CC[C@H](CC(=O)N3CCOCC3)CC2)cc1 [Example 2-95] |
| 10 to 100 | 112 to 113 | CC1(C)Oc2ncnc(N)c2N=C1c1ccc([C@H]2CC[C@H](CC(=O)N3CCC(CCO)CC3)CC2)cc1 [Example 2-96] |
| 10 to 100 | 225 to 226 | CC1(C)Oc2ncnc(N)c2N=C1c1ccc([C@H]2CC[C@H](CC(=O)N3CCN(CCO)CC3)CC2)cc1 [Example 2-97] |
| 10 to 100 | 131 to 133 | CC(C)(CO)NC(=O)C[C@H]1CC[C@H](c2ccc(C3=Nc4c(N)ncnc4OC3(C)C)cc2)CC1 [Example 2-98] |
| 10 to 100 | 113 to 115 | CN(CCO)C(=O)C[C@H]1CC[C@H](c2ccc(C3=Nc4c(N)ncnc4OC3(C)C)cc2)CC1 [Example 2-99] |
| 10 to 100 | 184 to 185 | CC1(C)Oc2ncnc(N)c2N=C1c1ccc([C@H]2CC[C@H](CC(=O)N3CCC[C@H]3CO)CC2)cc1 [Example 2-100] |
| 10 to 100 | 237 to 239 | CC1(C)Oc2ncnc(N)c2N=C1c1ccc([C@H]2CC[C@H](CC(=O)N3CCC(O)C3)CC2)cc1 (stereo partly drawn) [Example 2-101] |
| 10 to 100 | 214 to 215 | CCCNC(=O)C[C@H]1CC[C@H](c2ccc(C3=Nc4c(N)ncnc4OC3(C)C)cc2)CC1 [Example 2-102] |
| 10 to 100 | 231 to 232 | CC1(C)Oc2ncnc(N)c2N=C1c1ccc([C@H]2CC[C@H](CC(=O)N3CC[C@@H](O)C3)CC2)cc1 [Example 2-103] |
| 10 to 100 | 186 to 188 | CN(CC[C@H]1CC[C@H](c2ccc(C3=Nc4c(N)ncnc4OC3(C)C)cc2)CC1)C(=O)CO [Example 2-104] |
| 10 to 100 | > 250 | CN(C(=O)CO)[C@H]1CC[C@H](c2ccc(C3=Nc4c(N)ncnc4OC3(C)C)cc2)CC1 [Example 2-105] |
| 10 to 100 | 250 to 252 | CC1(C)Oc2ncnc(N)c2N=C1c1ccc([C@H]2CC[C@H](CC(=O)N3C[C@@H](O)[C@@H](O)C3)CC2)cc1 [Example 2-106] |
| 10 to 100 | 202 to 203 | CC1(C)Oc2ncnc(N)c2N=C1c1ccc([C@H]2CC[C@H](Cn3ccnc3)CC2)cc1 [Example 2-108] |
| 10 to 100 | > 230 | CC1(C)Oc2ncnc(N)c2N=C1c1ccc([C@H]2CC[C@H](Cc3nc4ccccc4[nH]3)CC2)cc1 [Example 2-109] |
| 10 to 100 | 155 to 156 | CC1(C)Oc2ncnc(N)c2N=C1c1ccc([C@H]2CC[C@H](CC(=O)CO)CC2)cc1 [Example 2-110] |
| 10 to 100 | > 250 | CC1(C)Oc2ncnc(N)c2N=C1c1ccc([C@H]2CC[C@H](CC(=O)N3CCNCC3)CC2)cc1.Cl.Cl [Example 2-111] |
| 10 to 100 | > 250 | CC1(C)Oc2ncnc(N)c2N=C1c1ccc([C@H]2CC[C@H](SCC(=O)O)CC2)cc1 [Example 2-112] |
| 10 to 100 | 172 to 173 | Cc1ncc(C[C@H]2CC[C@H](c3ccc(C4=Nc5c(N)ncnc5OC4(C)C)cc3)CC2)[nH]1 [Example 2-113] |
| 10 to 100 | 250 | CC(C)NC[C@H]1CC[C@H](c2ccc(C3=Nc4c(N)ncnc4OC3(C)C)cc2)CC1 [Example 2-114] |
| > 100 | 127 to 135 | CCOC(=O)N1CCC(NC[C@H]2CC[C@H](c3ccc(C4=Nc5c(N)ncnc5OC4(C)C)cc3)CC2)CC1 [Example 2-115] |
